The values below come from ChEMBL document CHEMBL1123868, “Synthesis of a series of compounds related to betaxolol, a new beta 1-adrenoceptor antagonist with a pharmacological and pharmacokinetic profile optimized for the treatment of chronic cardiovascular diseases” (J Med Chem, 1987).

The species named for experiment [1] is Rattus norvegicus. Description: Antihypertensive activity expressed as percentage of base-line systolic blood pressure of base-line values in spontaneously hypertensive rats (SHR) was reported after 24 hr. Note: test concentration or dose not given here. The experiment is classed as functional, Artery.
For experiment [2], the species on record is Rattus norvegicus. Kind of experiment: Antihypertensive activity expressed as percentage of base-line systolic blood pressure of base-line values in spontaneously hypertensive rats (SHR) was reported after 2 hr. Note: test concentration or dose not given here. It counts as functional, Artery.
The species entered for experiment [3] is Rattus norvegicus. Kind of experiment: Antihypertensive activity expressed as percentage of base-line systolic blood pressure of base-line values in spontaneously hypertensive rats (SHR) was reported after 4 hr. Note: test concentration or dose not given here. It counts as functional, Artery.
Experiment [4] has as its target Beta-1 adrenergic receptor (Rattus norvegicus) (UniProt P18090). As to conditions: read-out: pA2 (converted).
Experiment [5] shares this target. Description: Antagonist activity was determined against beta-1 adrenergic receptor in spontaneously beating rat atria. It counts as functional.

Molecules are shown by their SMILES. Active and inactive are the calls of the source. No cut-off for these calls is given here.

Chain of Beta-1 adrenergic receptor (Rattus norvegicus) (P18090 whole entry, looked up): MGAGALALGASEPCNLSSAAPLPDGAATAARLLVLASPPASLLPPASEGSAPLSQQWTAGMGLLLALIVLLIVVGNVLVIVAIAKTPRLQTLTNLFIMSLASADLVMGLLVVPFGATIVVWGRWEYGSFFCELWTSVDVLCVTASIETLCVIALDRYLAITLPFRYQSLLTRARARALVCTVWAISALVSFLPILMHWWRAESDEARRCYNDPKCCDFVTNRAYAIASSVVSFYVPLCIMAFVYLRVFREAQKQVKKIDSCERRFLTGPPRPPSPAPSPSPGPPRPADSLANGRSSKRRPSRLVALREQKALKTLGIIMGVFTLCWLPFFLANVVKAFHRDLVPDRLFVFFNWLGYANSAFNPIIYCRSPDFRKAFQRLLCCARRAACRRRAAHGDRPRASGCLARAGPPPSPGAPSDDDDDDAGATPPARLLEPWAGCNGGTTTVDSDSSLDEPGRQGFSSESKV

Consider `CC(C)NCC(O)COc1ccc(CCCOCC2CCC2)cc1.O=C(O)C(=O)O` (stereo not given), for which the figures for the “Baseline systolic BP” value in the experiment listed under Rattus norvegicus [1], in the experiment listed under Rattus norvegicus [2] and in the experiment filed under Rattus norvegicus [3] were -1%, -11% and -11%, respectively.

Turning to `CC(C)NCC(O)COc1ccc(CCS(=O)(=O)CC2CCCCC2)cc1.Cl` (stereo not given), the “Baseline systolic BP” value in the experiment filed under Rattus norvegicus [1] is -2%; in the experiment listed under Rattus norvegicus [2] it was -6%; in the experiment filed under Rattus norvegicus [3] it was -2%.

On to `CC(C)NCC(O)COc1ccc(CCSCC2CCC2)cc1` (stereo not given), for which the “Baseline systolic BP” value in the experiment filed under Rattus norvegicus [1] is -3%; in the experiment filed under Rattus norvegicus [2] it was -2%; in the experiment listed under Rattus norvegicus [3], -6%.

On to `CC(C)NCC(O)COc1ccc(C[S+]([O-])CC2CC2)cc1` (stereo not given), for which the “Baseline systolic BP” value was -2% in the experiment listed under Rattus norvegicus [1], -4% in the experiment listed under Rattus norvegicus [2] and -8% in the experiment listed under Rattus norvegicus [3].

As for `CC(C)NCC(O)COc1ccc(CCOC2CCCC2)cc1.Cl` (stereo not given), the “Baseline systolic BP” value was -7% in the experiment filed under Rattus norvegicus [1], -8% in the experiment filed under Rattus norvegicus [2] and -16% in the experiment filed under Rattus norvegicus [3].

With `CC(C)NCC(O)COc1ccc(CCOC2CCCCC2)cc1` (stereo not given), the “Baseline systolic BP” value in the experiment listed under Rattus norvegicus [1] is recorded as -12%; in the experiment listed under Rattus norvegicus [2] it was 4%; in the experiment filed under Rattus norvegicus [3], -2%.

Regarding `CC(C)NCC(O)COc1ccc(CCOCC2CCCC2)cc1` (stereo not given), the “Baseline systolic BP” value in the experiment filed under Rattus norvegicus [1] is -8%; in the experiment listed under Rattus norvegicus [2], -21%; in the experiment filed under Rattus norvegicus [3], -16%.

For `CC(=O)NCCNCC(O)COc1ccc(CCOCC2CCC2)cc1.Cl` (stereo not given), the entries for the “Baseline systolic BP” value in the experiment listed under Rattus norvegicus [1], in the experiment listed under Rattus norvegicus [2] and in the experiment filed under Rattus norvegicus [3] were -7%, -6% and -8%, respectively.

As to `CC(C)NCC(O)COc1ccc(CCOCC2CC2)cc1.Cl` (stereo not given) [BETAXOLOL HYDROCHLORIDE], the “Baseline systolic BP” value in the experiment filed under Rattus norvegicus [1] is -6%; in the experiment filed under Rattus norvegicus [2], -22%; in the experiment listed under Rattus norvegicus [3], -19%.

Consider `COc1ccc(CCNCC(O)COc2ccc(CCOCC3CCC3)cc2)cc1OC.Cl` (stereo not given), for which the “Baseline systolic BP” value was -6% in the experiment filed under Rattus norvegicus [1], -7% in the experiment listed under Rattus norvegicus [2] and -5% in the experiment listed under Rattus norvegicus [3].

In the case of `CC(C)NCC(O)COc1ccc(CCOCC2CCC2)cc1.Cl` (stereo not given), the figures for the “Baseline systolic BP” value in the experiment listed under Rattus norvegicus [1], in the experiment filed under Rattus norvegicus [2] and in the experiment listed under Rattus norvegicus [3] were -4%, -16% and -16%, respectively.

Turning to `CC(CC#N)NCC(O)COc1ccc(CCOCC2CCC2)cc1.Cl` (stereo not given), the “Baseline systolic BP” value in the experiment filed under Rattus norvegicus [1] is -2%; in the experiment filed under Rattus norvegicus [2], -2%; in the experiment listed under Rattus norvegicus [3] it was -4%.

As for `CC(C)NCC(O)COc1ccc(CCOCC2CCCCC2)cc1.Cl` (stereo not given), the “Baseline systolic BP” value is reported as -7% in the experiment filed under Rattus norvegicus [1], -14% in the experiment listed under Rattus norvegicus [2] and -18% in the experiment filed under Rattus norvegicus [3].

As to `COCCc1ccc(OCC(O)CNC(C)C)cc1` (stereo not given) [METOPROLOL], the values for the Baseline systolic BP in the experiment listed under Rattus norvegicus [1], in the experiment filed under Rattus norvegicus [2] and in the experiment listed under Rattus norvegicus [3] were -12%, 4% and -2%, respectively.

Regarding `CC(CCc1ccccc1)NCC(O)COc1ccc(CCOCC2CCC2)cc1` (stereo not given), the “Baseline systolic BP” value in the experiment listed under Rattus norvegicus [1] is on record as 2%; in the experiment filed under Rattus norvegicus [2], -1%; in the experiment filed under Rattus norvegicus [3], 1%.

In the case of `CC(C)NCC(O)COc1ccc(COCC2CCC2)cc1.Cl` (stereo not given), the “Baseline systolic BP” value in the experiment listed under Rattus norvegicus [1] is listed as -1%; in the experiment filed under Rattus norvegicus [2] it was -9%; in the experiment listed under Rattus norvegicus [3], -6%.

`CC(=O)Nc1ccc(OCC(O)CNC(C)C)cc1` (stereo not given) [PRACTOLOL]: the Kb in experiment [4] is 186 nM.

On to `CC(C)NCC(O)COc1ccc(CCS(=O)(=O)CC2CCCO2)cc1.Cl` (stereo not given), for which the “Baseline systolic BP” value is given as -3% in the experiment listed under Rattus norvegicus [1], -22% in the experiment listed under Rattus norvegicus [2] and -16% in the experiment filed under Rattus norvegicus [3].

As for `CC(C)NCC(O)COc1ccc(CCS(=O)(=O)CC2CCC2)cc1.Cl` (stereo not given), the “Baseline systolic BP” value in the experiment listed under Rattus norvegicus [1] is given as 1%; in the experiment filed under Rattus norvegicus [2] it was -4%; in the experiment listed under Rattus norvegicus [3] it was -13%.

Regarding `CC(C)NCC(O)COc1ccc(CCOC2CCCC2)cc1` (stereo not given), the “Baseline systolic BP” value in the experiment listed under Rattus norvegicus [1] is on record as -4%; in the experiment filed under Rattus norvegicus [2], -17%; in the experiment filed under Rattus norvegicus [3] it was -11%.

As to `CC(C)NC[C@H](O)COc1ccc(CCOCC2CC2)cc1` [LEVOBETAXOLOL], the “Baseline systolic BP” value in the experiment filed under Rattus norvegicus [1] is -13%; in the experiment listed under Rattus norvegicus [2], -10%; in the experiment filed under Rattus norvegicus [3], -12%.

As for `CC(CCc1ccc(F)cc1)NCC(O)COc1ccc(CCOCC2CCC2)cc1` (stereo not given), the entries for the “Baseline systolic BP” value in the experiment filed under Rattus norvegicus [1], in the experiment filed under Rattus norvegicus [2] and in the experiment listed under Rattus norvegicus [3] were -2%, -4% and -10%, respectively.

Turning to `CC(C)NCC(O)COc1cccc2ccccc12` (stereo not given) [PROPRANOLOL], the “Baseline systolic BP” value in the experiment listed under Rattus norvegicus [1] is on record as -9%; in the experiment listed under Rattus norvegicus [2], 0%; in the experiment filed under Rattus norvegicus [3], 0%.

For the compound `CC(C)NCC(O)COc1ccc(CCOCC2CC2)cc1` (stereo not given) [BETAXOLOL], the figures for the “Baseline systolic BP” value in the experiment listed under Rattus norvegicus [1], in the experiment filed under Rattus norvegicus [2] and in the experiment filed under Rattus norvegicus [3] were 3%, 3% and 5%, respectively.

Turning to `Cl.OC(CNC1CC1)COc1ccc(CCOCC2CCC2)cc1` (stereo not given), the “Baseline systolic BP” value in the experiment filed under Rattus norvegicus [1] was 0%; in the experiment filed under Rattus norvegicus [2], 0%; in the experiment listed under Rattus norvegicus [3], -5%.

As for `CC(C)NCC(O)COc1ccc(COCC2CC2)cc1` (stereo not given), the “Baseline systolic BP” value in the experiment listed under Rattus norvegicus [1] is -6%; in the experiment filed under Rattus norvegicus [2], -4%; in the experiment filed under Rattus norvegicus [3] it was -3%.

Consider `CC(C)NCC(O)COc1ccc(C[S+]([O-])CC2CCCC2)cc1` (stereo not given), for which, in experiment [5], the NA entry was “inactive”. Besides, the “Baseline systolic BP” value is listed as -1% in the experiment filed under Rattus norvegicus [1], -5% in the experiment filed under Rattus norvegicus [2] and -7% in the experiment filed under Rattus norvegicus [3].
